Results taken from article PMC8211987, “Primaquine Diphosphate, a Known Antimalarial Drug, Blocks Vascular Leakage Acting Through Junction Stabilization” (Frontiers in Pharmacology, 2021).

Target: T1, ubiquitin specific protease 1 (USP1) (Homo sapiens, UniProt O94782)
T1 construct: recombinant USP1/UAF1 complex; with UAF1
Experiment: Ub-AMC deubiquitinase activity assay with purified recombinant USP1/UAF1
Format: biochemical

T1 sequence (O94782 whole entry): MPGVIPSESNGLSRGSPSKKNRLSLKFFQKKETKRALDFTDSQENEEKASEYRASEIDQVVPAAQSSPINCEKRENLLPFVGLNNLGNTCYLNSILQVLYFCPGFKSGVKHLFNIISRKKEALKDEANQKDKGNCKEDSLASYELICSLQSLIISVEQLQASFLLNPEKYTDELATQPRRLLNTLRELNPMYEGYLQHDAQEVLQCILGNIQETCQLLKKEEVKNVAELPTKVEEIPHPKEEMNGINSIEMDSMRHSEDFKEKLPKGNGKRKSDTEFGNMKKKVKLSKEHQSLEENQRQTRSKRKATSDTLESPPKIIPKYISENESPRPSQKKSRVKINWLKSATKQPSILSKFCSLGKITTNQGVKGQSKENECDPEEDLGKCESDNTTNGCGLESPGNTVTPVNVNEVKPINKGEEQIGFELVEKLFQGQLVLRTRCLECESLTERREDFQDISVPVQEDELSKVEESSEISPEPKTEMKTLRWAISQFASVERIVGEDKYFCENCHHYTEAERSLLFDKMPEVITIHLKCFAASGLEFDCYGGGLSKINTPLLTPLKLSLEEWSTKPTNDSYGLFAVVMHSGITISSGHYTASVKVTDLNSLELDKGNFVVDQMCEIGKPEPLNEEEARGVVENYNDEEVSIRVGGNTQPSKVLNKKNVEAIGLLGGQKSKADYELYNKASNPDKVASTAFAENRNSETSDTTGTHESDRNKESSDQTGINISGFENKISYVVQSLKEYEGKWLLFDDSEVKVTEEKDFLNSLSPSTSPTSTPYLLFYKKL
T1 sequence (Q8TAF3 whole entry partner): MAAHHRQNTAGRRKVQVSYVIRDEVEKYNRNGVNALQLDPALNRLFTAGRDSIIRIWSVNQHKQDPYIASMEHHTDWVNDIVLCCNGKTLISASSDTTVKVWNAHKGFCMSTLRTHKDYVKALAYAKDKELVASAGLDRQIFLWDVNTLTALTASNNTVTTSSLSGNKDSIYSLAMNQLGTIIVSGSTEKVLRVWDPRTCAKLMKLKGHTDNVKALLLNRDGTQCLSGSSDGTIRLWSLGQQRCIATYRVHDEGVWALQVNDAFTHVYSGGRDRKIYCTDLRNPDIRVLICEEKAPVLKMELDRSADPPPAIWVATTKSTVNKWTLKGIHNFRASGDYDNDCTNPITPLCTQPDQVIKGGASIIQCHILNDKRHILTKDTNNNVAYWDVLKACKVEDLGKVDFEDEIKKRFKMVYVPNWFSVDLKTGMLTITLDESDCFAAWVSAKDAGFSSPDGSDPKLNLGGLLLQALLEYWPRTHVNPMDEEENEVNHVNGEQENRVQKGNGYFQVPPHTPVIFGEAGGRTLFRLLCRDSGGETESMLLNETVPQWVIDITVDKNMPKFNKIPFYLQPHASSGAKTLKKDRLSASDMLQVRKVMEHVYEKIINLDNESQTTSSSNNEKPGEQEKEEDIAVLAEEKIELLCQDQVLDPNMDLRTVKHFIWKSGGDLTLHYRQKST

Work on COc1cc(NC(C)CCCN)c2ncccc2c1 (stereo not shown) [PD, Primaquine diphosphate] yielded an IC50 of 25.4 µM.
